Measured values from paper PMC12766724, “Synthesis, Anthelmintic Activity, and Mechanism of Action of 5‑Aryl‑1H‑indoles” (Journal of Agricultural and Food Chemistry, 2025).
Like-named read-outs stand apart in the source and are kept apart here.

Legend:
C. elegans N2 wild-type = assay: Chitinase assay (reproductive capacity); type: in vivo, Caenorhabditis elegans
Experimental: (§1) The effect of compounds on C. elegans was evaluated using the Chitinase assay as we described previously.
After exposing L1 larvae to the compounds for 4 days, we observed the populations under a microscope and measured the Chitinase activity. The larvae produce the enzyme while hatching, and its activity is indicative of the reproductive capacity of the worms. Populations that fail to reproduce due to acute or reproductive toxicity or developmental abnormalities are detected.

[1] = test system: Heterodera schachtii second-stage juveniles (J2); assay: Motility on WMicrotracker ONE; type: in vivo
Experimental: H. schachtii was maintained on mustard (Sinapsis alba cv. Albatros) roots grown in vitro on modified KNOP medium according to the previously published protocols. ,
(§2) The effect of compounds on motility of H. contortus, D. destructor, and H. schachtii was evaluated using the WMicrotracker ONE platform according to previously published protocols. ,
(§3) The instrument evaluates the activity of small animals by counting how many times infrared light microbeams passing through the wells of a microtiter plate are interrupted. In age-unsynchronized populations of D. destructor, we observed reduced motility of worm populations treated with the halogenated derivatives i-19, i-20, and i-21 (Figures A, S2.1A, S2.2A and Table S2.1). […] The decreases in mean activity counts after 72 h of treatment at 100 μM were 85% and 97%, respectively.

Skin fibroblasts (BJ) = assay: Resazurin assay, 3-day treatment; type: cell-based, human; settings: BJ
Experimental: Skin fibroblasts (BJ) were obtained from the American Type Culture Collection (ATCC, Manassas, VA), while human keratinocytes (HaCaT) were sourced from the German Cancer Research Center in Heidelberg, Germany. Cells were cultured in a standard DMEM medium from Sigma-Aldrich, supplemented with 10% fetal bovine serum, 2 mM glutamine, 100 U/mL penicillin, and 100 μg/mL streptomycin. Cultures were maintained under standard conditions (37 °C, 5% CO2, humidified atmosphere) and subcultured two to three times per week. We assessed the effect of 3-day compound treatments on cell viability using a resazurin reduction assay measuring mitochondrial activity. Approximately 5,000 cells in 80 μL of culture medium were seeded into the wells of a 96-well plate. Twenty-four hours later, 20 μL of 5-fold concentrated test compound solutions was added and tested across three concentrations prepared through 2-fold serial dilutions. The highest final concentration was 40 μM. After 72 h, we added an 11-fold concentrated resazurin solution to the wells, achieving a final concentration of 0.0125 μM. Fluorescence (ex = 570 nm, em = 610 nm) was measured after 3 h of incubation. […]

[2] = test system: Arabidopsis thaliana Col-0; assay: Germination rate and phytotoxicity; type: in vivo; settings: for average fraction of germinated seeds: 5 DPS; for main root length / plant weight: 10 DPS
Experimental: Wild-type A. thaliana (Col-0 ecotype) seeds were sterilized with 70% EtOH with 0.1% Tween-20 solution (2 × 1 mL) for 10 min, rinsed with 96% EtOH (1 × 1 mL) for 10 min, and kept in the fridge (4 °C in the dark). Seeds were sown on a sterile 1/2 MS medium supplemented with 0.3% DMSO as a mock and test compounds at 5, 10, 50, and 100 μM concentrations in 0.3% DMSO. Plates were kept in long-day light conditions (22 °C/20 °C, 16 h light/8 h dark, 100 μmol m^–2 s^–1). After 5 days, the germination rate was evaluated. After an additional 5 days, primary root growth was measured with ImageJ software (https://imagej.nih.gov/ij/), and seedlings were weighted.

[3] = test system: age unsynchronized Ditylenchus destructor; assay: Motility on WMicrotracker ONE; type: in vivo
Experimental: Populations of D. destructor, kindly provided by Central Institute for Supervising and Testing in Agriculture, the Ministry of Agriculture of the Czech Republic, were maintained according to the protocol previously described here.
as §2, §3

[4] = test system: human keratinocytes (HaCaT); assay: Resazurin assay, 3-day treatment; type: cell-based
Experimental: Skin fibroblasts (BJ) were obtained from the American Type Culture Collection (ATCC, Manassas, VA), while human keratinocytes (HaCaT) were sourced from the German Cancer Research Center in Heidelberg, Germany. Cells were cultured in a standard DMEM medium from Sigma-Aldrich, supplemented with 10% fetal bovine serum, 2 mM glutamine, 100 U/mL penicillin, and 100 μg/mL streptomycin. Cultures were maintained under standard conditions (37 °C, 5% CO2, humidified atmosphere) and subcultured two to three times per week. We assessed the effect of 3-day compound treatments on cell viability using a resazurin reduction assay measuring mitochondrial activity. Approximately 5,000 cells in 80 μL of culture medium were seeded into the wells of a 96-well plate. Twenty-four hours later, 20 μL of 5-fold concentrated test compound solutions was added and tested across three concentrations prepared through 2-fold serial dilutions. The highest final concentration was 40 μM. After 72 h, we added an 11-fold concentrated resazurin solution to the wells, achieving a final concentration of 0.0125 μM. Fluorescence (ex = 570 nm, em = 610 nm) was measured after 3 h of incubation.
The disubstituted derivatives i-25 and i-27 were the most toxic in the set, causing around a 50% decrease in viability of HaCaT cells at 40 μM.

[5] = test system: C. elegans CB3474 ben-1(e1880) III.; assay: Chitinase assay (reproductive capacity); type: in vivo; settings: Caenorhabditis elegans; mebendazole-resistant strain
Experimental: (§4) C. elegans strains used in this study were N2 (wild-type), levamisole-resistant strains ZZ15 (lev-8(x15) X) and […] (lev-1(e211) IV), ivermectin-resistant strain DA1316 (avr-14(ad1305) I; avr-15(vu227) glc-1(pk54) V), mebendazole-resistant strain […] (ben-1(e1880) III), and three strains with mutations in succinate dehydrogenase, RP2699, RP2700, and RP2702. The worms were cultivated on Nematode Growth Medium agar plates seeded with Escherichia coli OP50 in 20 °C according to the standard cultivation protocols. Strains RP2699, RP2700, and RP2702 were generated by Prof. Peter Roy’s group. All other strains and bacteria were purchased from the Caenorhabditis Genetics Center (CGC, Minneapolis, MN).
as §1
(§5) Lastly, strain DA1316 has mutations in three genes encoding subunits of the glutamate-gated chloride channel and is highly resistant to avermectins.

[6] = test system: C. elegans ZZ15 lev-8(x15) X.; assay: Chitinase assay (reproductive capacity); type: in vivo; settings: Caenorhabditis elegans; levamisole-resistant strain
Experimental: as §4, §1, §5

[7] = test system: C. elegans CB211 lev-1(e211) IV.; assay: Chitinase assay (reproductive capacity); type: in vivo; settings: Caenorhabditis elegans; levamisole-resistant strain
Experimental: as §4, §1, §5

[8] = test system: C. elegans DA1316 avr-14(ad1305) I; avr-15(vu227) glc-1(pk54) V.; assay: Chitinase assay (reproductive capacity); type: in vivo; settings: Caenorhabditis elegans; ivermectin-resistant strain
Experimental: as §4, §1, §5

[9] = 10 µM group, initial (prior to the treatment)
[10] = 50 µM group, initial (prior to the treatment)
[11] = 100 µM group, initial (prior to the treatment)

CC(C)Oc1cccc(-c2ccc3[nH]ccc3c2)c1 [i-15]
IC50 (C. elegans N2 wild-type): 7.93 ± 0.66 µM | IC50 (C. elegans N2 wild-type; Caenorhabditis elegans): < 10 µM | average activity counts [1, 9]: 169 | average activity counts ([1]; 10 µM, 48 h): 191 | average activity counts ([1]; 10 µM, 72 h): 164 | average activity counts [1, 10]: 188 | average activity counts ([1]; 50 µM, 48 h): 193 | average activity counts ([1]; 50 µM, 72 h): 144 | average activity counts [1, 11]: 195 | average activity counts ([1]; 100 µM, 48 h): 212 | average activity counts ([1]; 100 µM, 72 h): 175 | Average viability (signal intensity relative to control) (Skin fibroblasts (BJ); 10 µM): 1 ± 0.03 | Average viability (signal intensity relative to control) (Skin fibroblasts (BJ); 20 µM): 1.03 ± 0.04 | Average viability (signal intensity relative to control) (Skin fibroblasts (BJ); 40 µM): 0.98 ± 0.05 | average fraction of germinated seeds ([2]; 5 µM): 0.98 | main root length ([2]; 5 µM): 36.67 mm | plant weight ([2]; 5 µM): 35.21 mg | average fraction of germinated seeds ([2]; 10 µM): 0.93 | main root length ([2]; 10 µM): 36.13 mm | plant weight ([2]; 10 µM): 31.55 mg | average fraction of germinated seeds ([2]; 50 µM): 0.95 | main root length ([2]; 50 µM): 35.01 mm | plant weight ([2]; 50 µM): 29.94 mg | average activity counts [3, 9]: 224 | average activity counts ([3]; 10 µM, 48 h): 201 | average activity counts ([3]; 10 µM, 72 h): 224 | average activity counts [3, 10]: 226 | average activity counts ([3]; 50 µM, 48 h): 198 | average activity counts ([3]; 50 µM, 72 h): 218 | average activity counts [3, 11]: 217 | average activity counts ([3]; 100 µM, 48 h): 199 | average activity counts ([3]; 100 µM, 72 h): 206 | Average viability (signal intensity relative to control) ([4]; 10 µM): 1.01 ± 0.04 | Average viability (signal intensity relative to control) ([4]; 20 µM): 1.04 ± 0.05 | Average viability (signal intensity relative to control) ([4]; 40 µM): 1.01 ± 0.05 | IC50 [5]: 10.2 ± 0.51 µM | IC50 [6]: 8.55 ± 1.04 µM | IC50 [7]: 8.86 ± 0.9 µM | IC50 [8]: 9.1 ± 2.21 µM

CCOc1cc(-c2ccc3[nH]ccc3c2)ccc1Cl [i-25]
IC50 (C. elegans N2 wild-type; Caenorhabditis elegans): 9.74 ± 1.65 µM | average activity counts [1, 9]: 174 | average activity counts ([1]; 10 µM, 48 h): 160 | average activity counts ([1]; 10 µM, 72 h): 171 | average activity counts [1, 10]: 178 | average activity counts ([1]; 50 µM, 48 h): 184 | average activity counts ([1]; 50 µM, 72 h): 170 | average activity counts [1, 11]: 172 | average activity counts ([1]; 100 µM, 48 h): 195 | average activity counts ([1]; 100 µM, 72 h): 190 | Average viability (signal intensity relative to control) (Skin fibroblasts (BJ); 10 µM): 0.92 ± 0.01 | Average viability (signal intensity relative to control) (Skin fibroblasts (BJ); 20 µM): 0.9 ± 0.05 | Average viability (signal intensity relative to control) (Skin fibroblasts (BJ); 40 µM): 0.74 ± 0.06 | average fraction of germinated seeds ([2]; 5 µM): 0.98 | main root length ([2]; 5 µM): 38.29 mm | plant weight ([2]; 5 µM): 30.25 mg | average fraction of germinated seeds ([2]; 10 µM): 0.95 | main root length ([2]; 10 µM): 38.15 mm | plant weight ([2]; 10 µM): 31.97 mg | average fraction of germinated seeds ([2]; 50 µM): 0.96 | main root length ([2]; 50 µM): 34.25 mm | plant weight ([2]; 50 µM): 27.79 mg | average activity counts [3, 9]: 234 | average activity counts ([3]; 10 µM, 48 h): 221 | average activity counts ([3]; 10 µM, 72 h): 194 | average activity counts [3, 10]: 246 | average activity counts ([3]; 50 µM, 48 h): 209 | average activity counts ([3]; 50 µM, 72 h): 197 | average activity counts [3, 11]: 230 | average activity counts ([3]; 100 µM, 48 h): 210 | average activity counts ([3]; 100 µM, 72 h): 203 | Average viability (signal intensity relative to control) ([4]; 10 µM): 0.93 ± 0.02 | Average viability (signal intensity relative to control) ([4]; 20 µM): 0.88 ± 0.06 | Average viability (signal intensity relative to control) ([4]; 40 µM): 0.53 ± 0.1 | decrease in viability ([4]; 40 µM): ~50% | IC50 [5]: 7.79 ± 0.36 µM | IC50 [6]: 8.72 ± 0.13 µM | IC50 [7]: 9.36 ± 0.43 µM | IC50 [8]: 9.93 ± 0.68 µM
